Active and inactive are the calls of the source. No cut-off for these calls is given here.
Columns and labels:
[1] = Covalent inhibition of C-terminal 6His-tagged Chlamydia trachomatis DUB1 (130 to 401 residues) expressed in Escherichia coli Rosetta 2 (DE3) cells using Ub-Rh110Gly as fluorogenic substrate preincubated for 1 hr followed by substrate addition by plate reader analysis
[2] = biological target: T1, Ubiquitin carboxyl-terminal hydrolase isozyme L1 (Homo sapiens, UniProt P09936); experiment: Inhibition of 6His-tagged human UCHL1 using Ub-Rh110Gly as fluorogenic substrate preincubated for 1 hr followed by substrate addition by plate reader analysis
T1 sequence (P09936 whole entry): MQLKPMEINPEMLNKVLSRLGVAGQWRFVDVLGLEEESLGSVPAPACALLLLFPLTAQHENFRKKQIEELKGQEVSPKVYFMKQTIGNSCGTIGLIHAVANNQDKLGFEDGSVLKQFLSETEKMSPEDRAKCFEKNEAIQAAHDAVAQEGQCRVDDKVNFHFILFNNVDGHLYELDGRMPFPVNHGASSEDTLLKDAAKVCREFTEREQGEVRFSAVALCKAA

[3] = biological target: T2, Ubiquitin carboxyl-terminal hydrolase 25 (Homo sapiens) (UniProt Q9UHP3); experiment: Inhibition of human USP25 (765 to 1055 residues) expressed in Escherichia coli Rosetta 2 (DE3) cells using Ub-Rh110Gly as fluorogenic substrate at 40 uM preincubated for 1 hr followed by substrate addition by plate reader analysis
T2 sequence (whole entry): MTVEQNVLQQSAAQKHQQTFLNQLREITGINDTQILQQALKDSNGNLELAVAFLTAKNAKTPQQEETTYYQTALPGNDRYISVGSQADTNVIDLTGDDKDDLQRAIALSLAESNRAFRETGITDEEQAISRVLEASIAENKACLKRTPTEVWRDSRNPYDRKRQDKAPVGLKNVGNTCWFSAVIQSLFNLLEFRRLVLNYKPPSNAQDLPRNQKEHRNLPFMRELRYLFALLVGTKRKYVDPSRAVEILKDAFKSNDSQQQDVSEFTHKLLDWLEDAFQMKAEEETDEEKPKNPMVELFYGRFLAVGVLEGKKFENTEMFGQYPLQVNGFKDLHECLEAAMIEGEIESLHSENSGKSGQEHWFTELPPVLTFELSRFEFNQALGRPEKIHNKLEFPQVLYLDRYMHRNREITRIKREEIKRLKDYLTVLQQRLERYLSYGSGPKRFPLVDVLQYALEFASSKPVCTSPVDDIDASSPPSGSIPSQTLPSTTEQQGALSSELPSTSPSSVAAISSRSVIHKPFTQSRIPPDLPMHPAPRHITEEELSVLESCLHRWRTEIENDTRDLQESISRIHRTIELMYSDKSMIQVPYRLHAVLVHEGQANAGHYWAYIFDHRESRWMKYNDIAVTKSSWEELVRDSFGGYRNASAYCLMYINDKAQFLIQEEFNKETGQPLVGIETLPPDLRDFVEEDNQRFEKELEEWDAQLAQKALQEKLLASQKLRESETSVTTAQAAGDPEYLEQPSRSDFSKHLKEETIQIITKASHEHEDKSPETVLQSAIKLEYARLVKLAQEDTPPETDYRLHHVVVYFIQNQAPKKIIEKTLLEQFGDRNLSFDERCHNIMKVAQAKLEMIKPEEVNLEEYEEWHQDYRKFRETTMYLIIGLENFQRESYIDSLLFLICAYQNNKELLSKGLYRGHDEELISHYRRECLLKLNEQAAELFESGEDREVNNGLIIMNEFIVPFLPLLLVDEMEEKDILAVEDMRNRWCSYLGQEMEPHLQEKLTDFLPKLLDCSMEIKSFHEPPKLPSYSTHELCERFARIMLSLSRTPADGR

[4] = biological target: T3, Ubiquitin carboxyl-terminal hydrolase 28 (Homo sapiens) (UniProt Q96RU2); experiment: Inhibition of human USP28 (149 to 707 residues) expressed in Escherichia coli Rosetta 2 (DE3) cells using Ub-Rh110Gly as fluorogenic substrate at 40 uM preincubated for 1 hr followed by substrate addition by plate reader analysis
T3 sequence (whole entry): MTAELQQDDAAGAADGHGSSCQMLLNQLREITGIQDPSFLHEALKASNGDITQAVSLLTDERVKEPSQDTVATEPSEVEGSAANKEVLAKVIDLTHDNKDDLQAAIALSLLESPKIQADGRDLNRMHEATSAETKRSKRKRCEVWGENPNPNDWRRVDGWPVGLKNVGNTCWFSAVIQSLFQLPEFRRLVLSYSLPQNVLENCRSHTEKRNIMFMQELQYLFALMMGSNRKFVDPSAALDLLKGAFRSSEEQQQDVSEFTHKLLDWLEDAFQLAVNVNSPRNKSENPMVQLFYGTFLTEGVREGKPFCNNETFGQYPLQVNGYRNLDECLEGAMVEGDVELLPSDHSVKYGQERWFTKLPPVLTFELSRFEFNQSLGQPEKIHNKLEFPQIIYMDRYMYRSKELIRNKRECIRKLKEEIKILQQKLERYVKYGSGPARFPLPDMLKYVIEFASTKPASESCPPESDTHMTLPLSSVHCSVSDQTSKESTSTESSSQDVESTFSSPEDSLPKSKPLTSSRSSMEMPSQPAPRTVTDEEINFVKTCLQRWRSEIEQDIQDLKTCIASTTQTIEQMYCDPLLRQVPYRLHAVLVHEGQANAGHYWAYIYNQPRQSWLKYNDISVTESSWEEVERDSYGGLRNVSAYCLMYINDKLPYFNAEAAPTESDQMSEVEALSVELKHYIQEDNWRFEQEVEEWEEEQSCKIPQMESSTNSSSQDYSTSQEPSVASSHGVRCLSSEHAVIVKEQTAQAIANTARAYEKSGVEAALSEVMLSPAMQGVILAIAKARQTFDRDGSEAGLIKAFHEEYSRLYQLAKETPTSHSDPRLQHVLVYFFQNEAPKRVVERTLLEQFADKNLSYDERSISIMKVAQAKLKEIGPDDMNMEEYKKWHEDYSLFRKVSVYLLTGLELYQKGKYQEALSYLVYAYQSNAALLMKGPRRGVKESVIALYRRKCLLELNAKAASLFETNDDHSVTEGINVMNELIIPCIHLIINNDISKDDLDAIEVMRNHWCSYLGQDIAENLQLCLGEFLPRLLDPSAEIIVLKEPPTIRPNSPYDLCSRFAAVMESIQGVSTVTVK

HeLa = experiment: Cytotoxicity against human HeLa cells at 128 ug/ml incubated for 20 hrs by […] assay; type: functional, cell-based; conditions: dose 128.0 µg/ml
Chlamydia trachomatis [5] = experiment: Antimicrobial activity against Chlamydia trachomatis serovar L2 infected in human HeLa cells assessed as reduction in inclusion area at 3.13 ug/ml measured after 24 hrs of post-infection by microscopic analysis; type: functional; conditions: dose 3.13 µg/ml
Chlamydia trachomatis [6] = experiment: Antimicrobial activity against Chlamydia trachomatis serovar L2 infected in human HeLa cells assessed as change in inclusion morphology at 1.56 to 12.5 ug/ml measured after 24 hrs of post-infection by immunofluorescence based microscopic analysis; type: functional, organism-based; conditions: dose 1.56-12.5 µg/ml
Chlamydia trachomatis [7] = experiment: Antimicrobial activity against Chlamydia trachomatis serovar L2 infected in human HeLa cells assessed as reduction in inclusion area at 1.56 ug/ml measured after 24 hrs of post-infection by microscopic analysis; type: functional; conditions: dose 1.56 µg/ml

IC50 [1]: 7.7 µM
pIC50 [1]: 5.11
IC50 [2]: 4.2 µM
inhibition [3]: inactive
inhibition [4]: inactive
Compound: N#Cc1ncc(C(=O)NCc2ccc(C(=O)NC34CC5CC(CC(C5)C3)C4)cc2)cn1
Activity (HeLa): inactive
Activity (Chlamydia trachomatis [5]): 49.99 um2
Activity (Chlamydia trachomatis [6]): inactive
Activity (Chlamydia trachomatis [7]): 70.68 um2

Source: ChEMBL document CHEMBL5576083, “Structure-Based Design and Synthesis of Covalent Inhibitors for Deubiquitinase and Acetyltransferase ChlaDUB1 of Chlamydia trachomatis” (J Med Chem, 2024)
